Results: patent publication US20120022058A1, “4,5-DIHYDRO-1H-PYRAZOLE COMPOUNDS AND THEIR PHARMACEUTICAL USES” (Pfizer Inc., priority 2009, published 2012)

Biological target: T1, MR (Homo sapiens, UniProt P08235)
T1 construct: expressed in transfected cells; host or cells: Huh7 human liver cells, transient transfection
T1 sequence (P08235 726-964 limits assumed): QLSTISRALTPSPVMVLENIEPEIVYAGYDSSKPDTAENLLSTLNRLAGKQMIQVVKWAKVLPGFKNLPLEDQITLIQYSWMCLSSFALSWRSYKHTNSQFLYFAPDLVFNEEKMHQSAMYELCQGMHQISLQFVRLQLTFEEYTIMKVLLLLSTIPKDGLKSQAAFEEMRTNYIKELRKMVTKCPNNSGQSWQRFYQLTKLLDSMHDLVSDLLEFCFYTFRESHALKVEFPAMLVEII
Test: Cell-Based Reporter Assay (Gal4 DBD-MR LBD luciferase reporter, antagonist mode);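 note: cells co-transfected with a Gal4 response element luciferase plasmid, compound exposure overnight before lysis and luminescence counting, IC50 reflects reduced aldosterone-stimulated reporter signal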
Details: antagonist mode vs aldosterone at EC80; transfected human liver cells (Huh7); luciferase readout; Examples 3, 6, 12 and 13 tested in analogous format with minor variations

IC50	SMILES
503 nM	Cc1cc(C2=NN(c3ccc(C#N)c(C)n3)[C@@H](C3CCCC3)C2)cc(C)c1O [Example 57, (R)-6-(5-cyclopentyl-3-(4-hydroxy-3,5-dimethylphenyl)-4,5-dihydro-1H-pyrazol-1-yl)-2-methylnicotinonitrile]
208 nM	Cc1nc(N2N=C(c3cc(F)c(O)c(F)c3)C[C@@H]2C2CCCC2)ccc1C#N [Example 61, (R)-6-(5-cyclopentyl-3-(3,5-difluoro-4-hydroxyphenyl)-4,5-dihydropyrazol-1-yl)-2-methylnicotinonitrile]
92.3 nM	Cc1nc(N2N=C(c3ccc(O)c(F)c3)C[C@@H]2C2CCCC2)ccc1C#N [Example 62, (R)-6-(5-cyclopentyl-3-(3-fluoro-4-hydroxyphenyl)-4,5-dihydropyrazol-1-yl)-2-methylnicotinonitrile]
10 nM	Cc1nc(N2N=C(c3ccc4c(c3)C(C)(C)OC(=O)N4)C[C@@H]2C2CCCC2)ccc1C#N [Example 64, (R)-6-(5-cyclopentyl-3-(4,4-dimethyl-2-oxo-2,4-dihydro-1H-benzo[d][1,3]oxazin-6-yl)-4,5-dihydro-1H-pyrazol-1-yl)-2-methylnicotinonitrile]
255 nM	CC(=O)Nc1cccc(C2=NN(c3ccc(C#N)c(C)n3)[C@@H](C3CCCC3)C2)n1 [Example 66, (R)—N-(6-(1-(5-cyano-6-methylpyridin-2-yl)-5-cyclopentyl-4,5-dihydro-1H-pyrazol-3-yl)pyridin-2-yl)acetamide]
170 nM	Cc1nc(N2N=C(c3cccc(OC(C)C)n3)C[C@@H]2C2CCCC2)ccc1C#N [Example 67, (R)-6-(5-cyclopentyl-3-(6-isopropoxypyridin-2-yl)-4,5-dihydro-1H-pyrazol-1-yl)-2-methylnicotinonitrile]
147 nM	COc1nc(C2=NN(c3ccc(C#N)c(C)c3)C(C3CC(F)(F)C3)C2)ccc1C(=O)O (stereo not shown) [Example 70, 6-(1-(4-cyano-3-methylphenyl)-5-(3,3-difluorocyclobutyl)-4,5-dihydro-1H-pyrazol-3-yl)-2-methoxynicotinic acid]
